The values that follow are results of earlier work, collected in US20100166856A1, “PHARMACEUTICAL COMPOSITION IN THE FORM OF COATED MICROSPHERES FOR THE MODIFIED RELEASE OF A MUSCLE RELAXANT AND AN NSAID” (LABORATORIOS SENOSIAIN S.A. DE C.V., priority 2006, published 2010).

The conditions of data set [1]: after administration.
The conditions of data set [2]: 22.5 mg of meloxicam.
For a further data set, the system named is metabolism of tizanidine. The conditions noted are these: combination of tizanidine with rofecoxib.

For `Clc1ccc2nsnc2c1NC1=NCCN1` [tizanidine], the half-life time entry (after oral administration) is on record as “approximately 2.5 hours”. Where the note is “in vivo”, the excretion in feces result is on record as “about 20%” and the excretion in urine was 60%.
With `Cc1cnc(NC(=O)C2=C(O)c3ccccc3S(=O)(=O)N2C)s1` [meloxicam], the “time at which maximum plasma concentration is reached” value in data set [1] is 4 to 5 h. Also, the “time of second concentration peak” value in data set [1] (indicates gastrointestinal re-circulation) was 12 to 14 h. For the same compound, the “effect of higher dose” value in data set [2] is listed as “only an increase in gastrointestinal adverse effect was observed”.
Take `CS(=O)(=O)c1ccc(C2=C(c3ccccc3)C(=O)OC2)cc1` [rofecoxib]: the “pharmacokinetic interaction with tizanidine” value in the data set with metabolism of tizanidine is “inhibits the metabolism of tizanidine”.
